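1) Cells in 96-well plates. 2) Compound, 48 h, 5 concentrations. 3) Linear interpolation between surrounding doses. 4) Unreached endpoint = highest concentration. Abbreviation: GI50, concentration required for 50% inhibition of growth.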 Activity calls are given as the source filed them. Rule as the data show it: active = GI50 up to about 1.1 µM and inactive = higher.
Assays:
Test in all cases: inhibition of tumour cell growth, NCI panel, 48 h
[1] = test system: 786-0
[2] = test system: A498
[3] = test system: A549
[4] = test system: ACHN
[5] = test system: BT-549
[6] = test system: CAKI-1
[7] = test system: CCRF-CEM
[8] = test system: COLO 205
[9] = test system: DU-145
[10] = test system: EKVX
[11] = test system: HCT-116
[12] = test system: HCT-15
[13] = test system: HL-60
[14] = test system: HOP-62
[15] = test system: HOP-92
[16] = test system: HT-29
[17] = test system: Hs-578T
[18] = test system: IGROV-1
[19] = test system: K562
[20] = test system: KM12
[21] = test system: LOX IMVI
[22] = test system: M14
[23] = test system: MCF7
[24] = test system: MDA-MB-231
[25] = test system: MDA-MB-435
[26] = test system: MDA-N
[27] = test system: MOLT-4
[28] = test system: Malme-3M
[29] = test system: NCI-H226
[30] = test system: NCI-H23
[31] = test system: NCI-H522
[32] = test system: NCI/ADR-RES
[33] = test system: OVCAR-3
[34] = test system: OVCAR-4
[35] = test system: OVCAR-5
[36] = test system: OVCAR-8
[37] = test system: PC-3
[38] = test system: RPMI-8226
[39] = test system: RXF 393
[40] = test system: SF-268
[41] = test system: SF-295
[42] = test system: SF-539
[43] = test system: SK-MEL-28
[44] = test system: SK-MEL-2
[45] = test system: SK-MEL-5
[46] = test system: SN12C
[47] = test system: SNB-19
[48] = test system: SW-620
[49] = test system: T47D
[50] = test system: TK-10
[51] = test system: U-251
[52] = test system: UACC-257
[53] = test system: UACC-62
[54] = test system: UO-31

Which results are given for `O=C1OS2(OC(=O)c3cccc4cccc2c34)c2ccccc21` (centres undefined)?
GI50 [1]: > 100 µM (inactive); GI50 [2]: > 100 µM (inactive); GI50 [3]: > 100 µM (inactive); GI50 [4]: > 100 µM (inactive); GI50 [5]: > 100 µM (inactive); GI50 [6]: > 100 µM (inactive); GI50 [7]: > 100 µM (inactive); GI50 [8]: > 100 µM (inactive); GI50 [9]: > 100 µM (inactive); GI50 [10]: > 100 µM (inactive); GI50 [11]: > 100 µM (inactive); GI50 [12]: > 100 µM; GI50 [13]: > 100 µM (inactive); GI50 [14]: > 100 µM (inactive); GI50 [15]: > 100 µM (inactive); GI50 [16]: > 100 µM (inactive); GI50 [17]: > 100 µM (inactive); GI50 [18]: > 100 µM (inactive); GI50 [19]: > 100 µM (inactive); GI50 [20]: > 100 µM (inactive); GI50 [21]: > 100 µM (inactive); GI50 [22]: > 100 µM (inactive); GI50 [23]: > 100 µM (inactive); GI50 [24]: > 100 µM (inactive); GI50 [25]: > 100 µM (inactive); GI50 [26]: > 100 µM (inactive); GI50 [27]: > 100 µM (inactive); GI50 [28]: > 100 µM (inactive); GI50 [29]: > 100 µM (inactive); GI50 [30]: > 100 µM (inactive); GI50 [31]: > 100 µM (inactive); GI50 [32]: > 100 µM (inactive); GI50 [33]: > 100 µM (inactive); GI50 [34]: > 100 µM (inactive); GI50 [35]: > 100 µM (inactive); GI50 [36]: > 100 µM (inactive); GI50 [37]: > 100 µM (inactive); GI50 [38]: > 100 µM (inactive); GI50 [39]: > 100 µM (inactive); GI50 [40]: > 100 µM (inactive); GI50 [41]: > 100 µM (inactive); GI50 [42]: > 100 µM (inactive); GI50 [43]: > 100 µM (inactive); GI50 [44]: > 100 µM (inactive); GI50 [45]: > 100 µM (inactive); GI50 [46]: > 100 µM (inactive); GI50 [47]: > 100 µM (inactive); GI50 [48]: > 100 µM (inactive); GI50 [49]: > 100 µM (inactive); GI50 [50]: > 100 µM (inactive); GI50 [51]: > 100 µM (inactive); GI50 [52]: > 100 µM (inactive); GI50 [53]: > 10 µM (inactive); GI50 [54]: > 100 µM (inactive)

— ChEMBL document CHEMBL1201862, “PubChem BioAssay data set” (2004)
